Reference: article PMC11003478, “Spiro heterocycles bearing piperidine moiety as potential scaffold for antileishmanial activity: synthesis, biological evaluation, and in silico studies” (Journal of Enzyme Inhibition and Medicinal Chemistry, 2022)
Several values for one entry are separate records, joined by “and”; a condition that tells them apart may be missing. Identical values can stand only once. Like-named read-outs stand apart in the source and are kept apart here. One block for each molecule: values may come before it.

Tests used:
[1] = system: L. major promastigote (folate pathway, DHFR and PTR1); test: Reversal of antileishmanial activity by folic acid and folinic acid (folate pathway inhibition); format: cell-based, Leishmania major; details: for Percentage survival, Folic acid 100 µM / Percentage survival, No Cpd added: test compound above its IC50 (trimethoprim 100 µM); for Percentage survival, No Cpd added: no folic or folinic acid; for Percentage survival, Folic acid 20µM: test compound above its IC50, folic acid 20µM; for Percentage survival, Folinic acid 20 µM: test compound above its IC50, folinic acid 20 µM; for Percentage survival, Folinic acid 100 µM: test compound above its IC50, folinic acid 100 µM
Description: It is worthy to mention that folic acid competes for the active sites of both DHFR and PTR1 while folinic acid involves in DNA synthesis without any necessity to undergo activation.
This experiment was performed on the in vitro growth assay for the promastigote and based on the previously published methodology. All experimental steps were performed as reported earlier.

[2] = system: L. major promastigote form; test: In vitro antileishmanial activity, promastigote form; format: cell-based, Leishmania major; details: read-out: Antipromastigotes IC50, µM ± SD
Description: All synthesised compounds were evaluated against L. major promastigote form.
(§1) We used both promastigote and amastigote forms of L. major strain for the in vitro evaluation. All experimental steps were carried out as reported earlier[35]^,[36]. The value of the compound concentration causing 50% inhibition (IC50) was calculated. The software employed is Graph Pad Prism 6 software (GraphPad Software, San Diego, CA, USA).

[3] = system: L. major axenic amastigote form; test: In vitro antileishmanial activity, axenic amastigote form; format: cell-based, Leishmania major
Description: as §1

[4] = In vitro cytotoxicity testing on VERO cells; details: African green monkey
VERO cells = test: In vitro cytotoxicity testing on VERO cells; details: for SI (selectivity index; SI = CC50/IC50): CC50 VERO cells / antileishmanial IC50; for CC50 (VERO cells) higher than IC50 (promastigotes): VERO cells versus promastigotes of leishmania parasite
Leishmania = system: Leishmania; parameters: method as in PMID 34311084; details: cited from earlier work
promastigote = system: promastigote; parameters: method as in PMID 27503653; details: read-out: Anti-promastigote EC50; cited from earlier work
amastigote = system: amastigote; parameters: method as in PMID 27503653; details: read-out: Anti-amastigote EC50; cited from earlier work
[5] = system: bisubunit DNA topoisomerase IB of L. donovani; parameters: method as in PMID 27503653; details: cited from earlier work
[6] = Leishmania major, L. major promastigote, 50% growth inhibition
[7] = Leishmania major, L. major axenic amastigote, 50% growth inhibition, read-out: Antiamastigote IC50, µM ± SD
[8] = VERO cells (African green monkey kidney cells)
[9] = Leishmania major, read-out: Antiamastigote IC50, µM ± SD, L. major axenic amastigote, 50% growth inhibition

SMILES: COc1cc(Cc2cnc(N)nc2N)cc(OC)c1OC [Trimethoprim, reference compound]
Percentage survival, Folic acid 100 µM [1]: 99%
Percentage survival, No Cpd added [1]: 72%

SMILES: CCCCCCCCCCCCCCCCOP(=O)([O-])OCC[N+](C)(C)C [Miltefosine, reference compound]
IC50 ([2]; L. major promastigote, 50% growth inhibition): 7.9 ± 0.28 µM
IC50 [2, 6]: 7.89 µM
IC50 [3, 7]: 8.08 ± 0.24 µM
CC50 at 72 h [4, 8]: 99.7 µM
SI (selectivity index; SI = CC50/IC50) (VERO cells): 12.6

SMILES: c1ccc(CN2C(c3ccccc3)CC3(CC2c2ccccc2)NCCN3)cc1 (stereo not drawn) [Compound 13, 8-Benzyl-7,9-diphenyl-1,4,8-triazaspiro[4.5]decane]
IC50 [2, 6]: 1.34 ± 0.14 µM
IC50 [3, 7]: 3.24 ± 0.22 µM
melting point: 209 to 211 °C

SMILES: O=C1CNCC2(CC(c3ccccc3)N(Cc3ccccc3)C(c3ccccc3)C2)N1c1ccccc1 (stereo not drawn) [Compound 6a, 9-Benzyl-1,8,10-triphenyl-1,4,9-triazaspiro[5.5]undecan-2-one]
IC50 ([2]; Leishmania major): 4.42 ± 0.22 µM
IC50 [3, 9]: 4.67 ± 0.16 µM
melting point: 150 to 153 °C

SMILES: CN(C)c1ccc(/C=N/N2C(=O)C(C#N)=CC23c2ccccc2Nc2ccccc23)cc1 [C]
Antileishmanial EC50 (Leishmania): 0.97 µg/mL

SMILES: N=C1NNC2(CC(c3ccccc3)N(Cc3ccccc3)C(c3ccccc3)C2)S1 (stereo not drawn) [Compound 12, 8-Benzyl-7,9-diphenyl-4-thia-1,2,8-triazaspiro[4.5]decan-3-imine]
IC50 [2, 6]: 2.21 ± 0.22 µM
IC50 [3, 7]: 3.43 ± 0.14 µM

SMILES: O=C1CNC(=O)C2(CC(c3ccccc3)N(Cc3ccccc3)C(c3ccccc3)C2)N1c1ccccc1 (stereo not drawn) [Compound 9a, 9-Benzyl-1,8,10-triphenyl-1,4,9-triazaspiro[5.5]undecane-2,5-dione]
IC50 ([2]; Leishmania major): 0.41 ± 0.04 µM
IC50 [3, 9]: 0.5 µM
IC50 ([3]; Leishmania major, read-out: Antileishmanial IC50 µM, IC50 used for the selectivity index in Table 4): 0.501 µM
IC50 ([3]; read-out: Antiamastigote IC50, µM ± SD, L. major axenic amastigote, 50% growth inhibition): 0.501 ± 0.16 µM
Percentage survival, Folic acid 100 µM [1]: 84%
Percentage survival, No Cpd added [1]: 26%
Percentage survival, Folic acid 20µM [1]: 76%
Percentage survival, Folinic acid 20 µM [1]: 80%
Percentage survival, Folinic acid 100 µM [1]: 92%
melting point: 201 to 203 °C
CC50 at 72 h [4]: 125 µg/mL and 249 µM
SI (selectivity index; SI = CC50/IC50) (VERO cells): 497.37
CC50 (VERO cells) higher than IC50 (promastigotes) (VERO cells): at least 2 orders of magnitude

SMILES: COC(=O)C1CC2CCCN2C12C(=O)N(Cc1ccccc1)c1ccccc12 (stereo not drawn) [B]
EC50 (promastigote): 1.24 to 1.41 µM
EC50 (amastigote): 0.53 to 0.9 µM
inhibition of bisubunit DNA topoisomerase IB [5]: catalytic inhibitor

Second part, led by results:

IC50 [2, 6]: 5.4 ± 0.24 µM
IC50 [3, 7]: 5.45 ± 0.22 µM
melting point: 128 to 130 °C
SMILES: O=C1NCC2(CC(c3ccccc3)N(Cc3ccccc3)C(c3ccccc3)C2)N1c1ccccc1 (stereo not drawn) [Compound 5a, 8-Benzyl-1,7,9-triphenyl-1,3,8-triazaspiro[4.5]decan-2-one]

IC50 [2, 6]: 1.12 ± 0.12 µM
IC50 [3, 7]: 0.89 µM
melting point: 188 to 190 °C
SMILES: O=C1NC(=O)C2(CC(c3ccccc3)N(Cc3ccccc3)C(c3ccccc3)C2)N1c1ccccc1 (stereo not drawn) [Compound 8a, 8-Benzyl-1,7,9-triphenyl-1,3,8-triazaspiro[4.5]decane-2,4-dione]
IC50 ([3]; Leishmania major, IC50 used for the selectivity index in Table 4, read-out: Antileishmanial IC50): 0.895 µM
Percentage survival, Folic acid 100 µM [1]: 81%
Percentage survival, No Cpd added [1]: 20%
Percentage survival, Folic acid 20µM [1]: 72%
Percentage survival, Folinic acid 20 µM [1]: 76%
Percentage survival, Folinic acid 100 µM [1]: 87%
CC50 at 72 h [4, 8]: 62.5 µg/mL and 128 µM
SI (selectivity index; SI = CC50/IC50) (VERO cells): 143.38
CC50 (VERO cells) higher than IC50 (promastigotes) (VERO cells): at least 2 orders of magnitude

IC50 [2, 6]: 3.27 ± 0.32 µM
IC50 [3, 7]: 4.89 ± 0.34 µM
melting point: 168 to 170 °C
SMILES: N=C1N(c2ccccc2)C(=S)N(c2ccccc2)C12CC(c1ccccc1)N(Cc1ccccc1)C(c1ccccc1)C2 (stereo not drawn) [Compound 11b, 8-Benzyl-4-imino-1,3,7,9-tetraphenyl-1,3,8-triazaspiro[4.5]decane-2-thione]

IC50 [2, 6]: 2.44 ± 0.22 µM
IC50 [3, 7]: 4.87 ± 0.32 µM
melting point: 180 to 183 °C
SMILES: N=C1N(c2ccccc2)C(=O)N(c2ccccc2)C12CC(c1ccccc1)N(Cc1ccccc1)C(c1ccccc1)C2 (stereo not drawn) [Compound 11a, 8-Benzyl-4-imino-1,3,7,9-tetraphenyl-1,3,8-triazaspiro[4.5]decan-2-one]

melting point: > 300 °C
SMILES: N#CC1=C(N)N(c2ccccc2)C2(CNC1c1ccccc1)CC(c1ccccc1)N(Cc1ccccc1)C(c1ccccc1)C2 (stereo not drawn) [Compound 7a, 8-Amino-3-benzyl-2,4,7,10-tetraphenyl-3,7,11-triazaspiro[5.6]dodec-8-ene-9-carbonitrile]
